In patent US20080188666A1, “LINEAR PHENYL-SUBSTITUTED INDAZOLES AND INDOLES, A PROCESS FOR THEIR PRODUCTION AND THEIR USE AS ANTI-INFLAMMATORY AGENTS” (priority 2006, published 2008):

Experiments:
[1] = biological target: T1, mineral corticoid receptor (MR) (Homo sapiens, UniProt P08235); test: binding to recombinantly produced mineral corticoid receptor; settings: recombinant receptor
T1 construct: made in house
T1 sequence (P08235 1-984): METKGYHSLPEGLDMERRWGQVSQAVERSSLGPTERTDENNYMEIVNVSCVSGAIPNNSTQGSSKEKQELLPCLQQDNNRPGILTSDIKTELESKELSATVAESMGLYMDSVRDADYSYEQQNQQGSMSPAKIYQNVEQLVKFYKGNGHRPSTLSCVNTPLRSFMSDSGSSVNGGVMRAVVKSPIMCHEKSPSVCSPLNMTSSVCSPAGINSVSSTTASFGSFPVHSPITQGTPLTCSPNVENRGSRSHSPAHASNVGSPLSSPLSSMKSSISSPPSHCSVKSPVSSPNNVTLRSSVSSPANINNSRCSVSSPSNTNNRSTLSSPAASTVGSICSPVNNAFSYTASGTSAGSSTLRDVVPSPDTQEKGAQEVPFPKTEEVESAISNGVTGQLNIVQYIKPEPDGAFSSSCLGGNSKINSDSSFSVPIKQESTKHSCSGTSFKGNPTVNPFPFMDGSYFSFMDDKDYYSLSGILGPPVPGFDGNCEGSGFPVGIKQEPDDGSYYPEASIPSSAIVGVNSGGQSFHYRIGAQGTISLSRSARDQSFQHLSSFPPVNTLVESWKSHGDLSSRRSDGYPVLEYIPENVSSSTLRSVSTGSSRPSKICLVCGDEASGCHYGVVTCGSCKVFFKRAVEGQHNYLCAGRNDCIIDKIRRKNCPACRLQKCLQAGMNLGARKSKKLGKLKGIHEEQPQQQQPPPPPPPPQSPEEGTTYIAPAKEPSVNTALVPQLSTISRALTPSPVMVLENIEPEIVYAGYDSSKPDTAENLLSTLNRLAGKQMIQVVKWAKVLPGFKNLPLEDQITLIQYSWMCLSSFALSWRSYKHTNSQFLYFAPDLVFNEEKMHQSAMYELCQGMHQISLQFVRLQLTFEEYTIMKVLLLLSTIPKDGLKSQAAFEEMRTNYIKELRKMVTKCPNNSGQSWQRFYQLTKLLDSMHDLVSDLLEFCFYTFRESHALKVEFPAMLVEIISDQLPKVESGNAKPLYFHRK
Description: (§1) The binding of the substances to the glucocorticoid receptor (GR) and other steroid hormone receptors (mineral corticoid receptor (MR), progesterone receptor (PR) and androgen receptor (AR)) is examined with the aid of recombinantly produced receptors. Cytosol preparations of Sf9 cells, which had been infected with recombinant baculoviruses, which code for the GR, are used for the binding studies. In comparison to reference substance [^3H]-dexamethasone, the substances show a high to very high affinity to GR. IC50(GR)=6.0 nM was thus measured for the compound from Example B7; IC50(MR), IC50(PR), IC50(AR)>1 μmol.

[2] = biological target: T2, glucocorticoid receptor (GR) (Homo sapiens, UniProt P04150); test: binding to recombinantly produced glucocorticoid receptor, Sf9 cytosol, [3H]-dexamethasone reference; settings: recombinant GR
T2 construct: made in house; host or cells: Sf9 cells infected with recombinant baculovirus (cytosol preparation)
T2 sequence (P04150 1-777): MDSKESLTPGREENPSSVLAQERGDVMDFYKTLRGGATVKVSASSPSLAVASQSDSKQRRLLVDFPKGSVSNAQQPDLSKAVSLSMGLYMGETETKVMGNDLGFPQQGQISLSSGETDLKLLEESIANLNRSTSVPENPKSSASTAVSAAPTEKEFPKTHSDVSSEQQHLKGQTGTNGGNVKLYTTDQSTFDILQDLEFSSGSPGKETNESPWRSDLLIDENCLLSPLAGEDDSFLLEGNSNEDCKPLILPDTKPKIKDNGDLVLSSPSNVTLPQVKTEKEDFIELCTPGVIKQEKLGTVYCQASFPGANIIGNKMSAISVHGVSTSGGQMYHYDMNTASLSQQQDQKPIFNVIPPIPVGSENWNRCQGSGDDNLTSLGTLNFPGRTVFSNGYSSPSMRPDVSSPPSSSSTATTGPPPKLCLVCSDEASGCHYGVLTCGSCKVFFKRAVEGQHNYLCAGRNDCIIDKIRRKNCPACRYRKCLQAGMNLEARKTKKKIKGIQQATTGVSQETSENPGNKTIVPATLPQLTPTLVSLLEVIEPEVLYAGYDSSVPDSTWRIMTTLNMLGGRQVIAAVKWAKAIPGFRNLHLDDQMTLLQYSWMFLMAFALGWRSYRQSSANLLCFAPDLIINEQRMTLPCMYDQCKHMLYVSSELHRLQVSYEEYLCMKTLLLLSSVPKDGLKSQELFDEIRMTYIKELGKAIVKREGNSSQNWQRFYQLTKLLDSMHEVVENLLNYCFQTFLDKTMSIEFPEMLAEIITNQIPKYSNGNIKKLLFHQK
Description: as §1

[3] = biological target: T3, progesterone receptor (PR) (Homo sapiens, UniProt P06401); test: binding to recombinantly produced progesterone receptor; settings: recombinant receptor
T3 construct: made in house
T3 sequence (P06401 1-933): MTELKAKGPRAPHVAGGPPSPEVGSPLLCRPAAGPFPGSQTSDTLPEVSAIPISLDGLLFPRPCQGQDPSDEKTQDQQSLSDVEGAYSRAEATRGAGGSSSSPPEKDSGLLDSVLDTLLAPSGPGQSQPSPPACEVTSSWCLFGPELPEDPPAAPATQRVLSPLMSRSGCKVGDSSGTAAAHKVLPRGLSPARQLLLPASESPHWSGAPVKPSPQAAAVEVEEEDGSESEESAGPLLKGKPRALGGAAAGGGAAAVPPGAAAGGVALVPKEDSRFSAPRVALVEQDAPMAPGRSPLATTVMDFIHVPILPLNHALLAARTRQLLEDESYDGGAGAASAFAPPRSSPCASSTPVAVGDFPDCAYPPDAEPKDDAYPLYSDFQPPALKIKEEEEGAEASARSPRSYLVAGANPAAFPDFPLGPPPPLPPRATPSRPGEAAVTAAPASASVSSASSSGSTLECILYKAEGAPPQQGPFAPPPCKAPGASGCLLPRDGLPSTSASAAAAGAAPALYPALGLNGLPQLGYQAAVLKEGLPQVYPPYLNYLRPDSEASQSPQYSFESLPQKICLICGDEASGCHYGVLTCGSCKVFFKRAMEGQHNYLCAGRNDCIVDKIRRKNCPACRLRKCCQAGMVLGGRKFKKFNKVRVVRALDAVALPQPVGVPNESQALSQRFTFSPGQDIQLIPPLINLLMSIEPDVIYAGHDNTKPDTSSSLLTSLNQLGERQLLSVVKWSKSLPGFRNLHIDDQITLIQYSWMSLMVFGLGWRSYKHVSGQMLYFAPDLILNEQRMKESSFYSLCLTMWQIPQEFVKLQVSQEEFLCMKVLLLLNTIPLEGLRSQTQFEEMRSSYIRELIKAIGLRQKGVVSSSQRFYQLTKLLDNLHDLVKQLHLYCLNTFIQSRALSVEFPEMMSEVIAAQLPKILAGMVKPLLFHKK
Description: as §1

[4] = tested on: secretion of cytokine IL-8 in human monocyte cell line THP-1; test: inhibition of LPS-triggered IL-8 secretion in THP-1 cells (ELISA); type: cell-based
Experimental: The concentration of the cytokines was determined in the supernatant by means of commercially available ELISA kits.

androgen receptor (AR) = biological target: T4, androgen receptor (AR) (Homo sapiens, UniProt P10275); test: binding to recombinantly produced androgen receptor; settings: recombinant receptor
T4 construct: made in house
T4 sequence (P10275 1-920): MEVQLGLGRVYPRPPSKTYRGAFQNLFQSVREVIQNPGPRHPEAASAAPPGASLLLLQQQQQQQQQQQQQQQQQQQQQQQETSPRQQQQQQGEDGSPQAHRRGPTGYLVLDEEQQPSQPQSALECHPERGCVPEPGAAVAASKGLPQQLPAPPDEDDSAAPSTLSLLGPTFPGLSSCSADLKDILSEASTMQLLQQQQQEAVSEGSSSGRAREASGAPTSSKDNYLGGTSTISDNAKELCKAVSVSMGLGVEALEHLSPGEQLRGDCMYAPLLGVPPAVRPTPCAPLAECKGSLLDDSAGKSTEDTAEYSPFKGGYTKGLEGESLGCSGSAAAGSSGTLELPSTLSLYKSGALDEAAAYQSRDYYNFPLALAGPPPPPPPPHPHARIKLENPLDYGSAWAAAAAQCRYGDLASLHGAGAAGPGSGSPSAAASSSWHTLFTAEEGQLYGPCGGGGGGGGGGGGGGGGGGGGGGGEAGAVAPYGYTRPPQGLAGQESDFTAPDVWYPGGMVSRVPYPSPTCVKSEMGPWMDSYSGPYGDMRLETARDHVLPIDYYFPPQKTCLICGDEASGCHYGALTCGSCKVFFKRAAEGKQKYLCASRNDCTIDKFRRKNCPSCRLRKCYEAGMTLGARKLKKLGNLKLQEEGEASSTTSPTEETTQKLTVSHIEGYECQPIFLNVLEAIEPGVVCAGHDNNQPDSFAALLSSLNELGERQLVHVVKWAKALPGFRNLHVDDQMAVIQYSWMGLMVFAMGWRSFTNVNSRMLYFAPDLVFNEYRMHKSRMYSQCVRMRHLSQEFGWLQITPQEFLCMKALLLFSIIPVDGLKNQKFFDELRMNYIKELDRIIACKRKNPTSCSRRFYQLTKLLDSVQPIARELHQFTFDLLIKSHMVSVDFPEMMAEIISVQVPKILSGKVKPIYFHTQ
Description: as §1

SMILES: CC(C)(CC(O)(CNc1cccc2c1cnn2-c1ccc(F)nc1)C(F)(F)F)c1cc(F)ccc1O (stereo not drawn) [Example B7, 4-(5-Fluoro-2-hydroxyphenyl)-4-methyl-1-{[1-(6-fluoropyridin-3-yl)indazol-4-yl]amino}-2-(trifluoromethyl)pentan-2-ol]
- IC50 [1]: > 1000 nM
- IC50 [2]: 6 nM
- IC50 [3]: > 1000 nM
- IC50 ([4]; Homo sapiens, THP-1, supernatant ELISA, read-out: IC50(IL8)): 0.72 nM
- eff. relative to dexamethasone (IL-8 inhibition) ([4]; THP-1): 97%
- IC50 (androgen receptor (AR)): > 1000 nM
